Reference: patent publication US20100204151A1, “USE OF A PEPTIDE AS A THERAPEUTIC AGENT” (priority 2007, published 2010)

How the values were obtained:
HIV-1IIIB = experiment: HIV-1 antiviral assay (CPE reduction) in CEM-SS cells; type: cell-based; conditions: for antiviral activity of positive control compounds: HIV-1 assay validity statement; for % CPE reduction in HIV-1 infected CEM-SS cells: test peptide 10 micrograms per ml, 6 days post-infection, MTS
CEM-SS cells = experiment: Cytotoxicity in the HIV-1 assay (MTS cell viability); conditions: test peptide 10 micrograms per ml
HCMV strain AD169 = experiment: HCMV plaque reduction assay in MRC-5 cells
in vitro [1] = conditions: human, CEM-SS cells
A549 cells [2] = experiment: Apoptosis induction assay (Annexin-5); type: cell-based, human; conditions: 10 micrograms per ml, 24 hours
From the text: Human A549 cells (carcinomic human alveolar basal epithelial cells) were utilized in the experiments employing the Annexin-5 apoptosis assay.

spleen cells = experiment: Th1/Th2 cytokine profiling assay (Ovalbumin-restimulated spleen cells, CBA kit); type: cell-based, Balb/c mice; conditions: 10 micrograms per ml; Ovalbumin restimulation; 72 hours
in vitro [3] = conditions: human, MRC-5 cells (embryonal lung fibroblasts)
MRSA = conditions: 5 micrograms per ml
Pseudomonas aeruginosa = type: cell-based; conditions: 5 micrograms per ml
[4] = test system: Primary Human endothelial cells (HUVEC); experiment: Endothelial cell migration assay; type: cell-based; conditions: 10 micrograms per ml, 22 hours
[5] = test system: macrophages prepared from PBMC; experiment: TNF alpha production assay (LPS-stimulated macrophages, ELISA); type: cell-based, human; conditions: 10 micrograms per ml, lipopolysaccharide 200 ng/ml, overnight
From the text: Not stimulated macrophages served as negative background control.

[6] = test system: hepatitis B virus (HBV) ayw strain; experiment: HBV replication assay in HepG2-2.2.15 cells (TaqMan PCR of secreted HBV DNA); type: cell-based; conditions: test peptide 10 micrograms per ml; six days; HBV DNA in supernatant
[7] = Cytotoxicity in the HBV assay (dye uptake cell viability); type: cell-based; conditions: human, HepG2-2.2.15 cells, test peptide 10 micrograms per ml
HUVEC = experiment: Endothelial tube formation assay; type: cell-based, human; conditions: 10 micrograms per ml, 20 hours
From the text: Positive control was vehicle only.

A549 cells [8] = experiment: Propidium iodide cell cycle assay; type: cell-based, human; conditions: 10 micrograms per ml, 24 hours, propidium iodide FACS
Experimental: Human A549 cells (carcinomic human alveolar basal epithelial cells) were utilized in the experiments employing the Propidium iodide cell cycle assay. […] Propidium iodide is an intercalating agent and a fluorescent molecule that can be used to stain DNA. […] Thereafter, cells were pelleted at 1500 rpm for 5 min and resuspended in Propidium iodide solution in PBS. After incubation for 40 min at 37° C., cells were analyzed in the FACS.

RAW 264.7 cells = experiment: Phagocytosis assay (Fluorescein-labeled Escherichia coli, flow cytometry); type: cell-based, mouse; conditions: 10 micrograms per ml, 30 min preincubation, 60 min ingestion
[9] = test system: Human Peripheral Blood Mononuclear Cells (PBMC); experiment: B cell proliferation assay (SAC plus Interleukin-2 stimulated PBMC, 3H-thymidine); type: cell-based; conditions: 10 micrograms per ml, 3 days plus 12 hours 3H-thymidine
A549 cells [10] = experiment: Apoptosis prevention assay (C2 ceramide, Annexin-5); type: cell-based, human; conditions: 10 micrograms per ml, 30 min pretreatment, then C2 ceramide
Streptococcus pneumoniae = type: cell-based; conditions: 5 micrograms per ml
[11] = test system: Human Peripheral Blood Mononuclear Cells (PBMC); experiment: T cell proliferation assay (PHA-stimulated PBMC, 3H-thymidine); conditions: 10 micrograms per ml, 3 days plus 12 hours 3H-thymidine

Cc1cn([C@H]2C[C@H](N=[N+]=[N-])[C@@H](CO)O2)c(=O)[nH]c1=O [AZT]
antiviral activity of positive control compounds (HIV-1IIIB): expected levels of antiviral activity
% CPE reduction in HIV-1 infected CEM-SS cells (HIV-1IIIB): 99%
% Cell viability (CEM-SS cells): 97%

Nc1nc(O)c2ncn(COC(CO)CO)c2n1 [Ganciclovir, reference compound]
antiviral activity of positive control compound (HCMV strain AD169; HCMV assay validity statement): expected levels of antiviral activity

CC(C)(C)NC(=O)[C@@H]1CN(Cc2cccnc2)CCN1C[C@@H](O)C[C@@H](Cc1ccccc1)C(=O)N[C@H]1c2ccccc2C[C@H]1O [Indinavir, indinavir]
antiviral activity of positive control compounds (HIV-1IIIB): expected levels of antiviral activity

Ac-HWAVGHL-NH2 [Acetyl-GRP (20-26), Ac-His-Trp-Ala-Val-Gly-His-Leu-NH2]
viability at 10 micrograms per ml (in vitro [1]): 100%
% of induction (A549 cells [2]): 1.1%
IFNγ spleen cells; TH1 response (% of control) (spleen cells): 117.9 % of control
IL-2 spleen cells (% of control) (spleen cells): 202.7 % of control
IL-4 spleen cells; TH2 response (% of control) (spleen cells): 168.7 % of control
IL-5 spleen cells; TH2 response (% of control) (spleen cells): 102.5 % of control
TNF-a spleen cells; TH1 response (% of control) (spleen cells): 145.8 % of control
% CPE reduction in HIV-1 infected CEM-SS cells (HIV-1IIIB): 0.0%
viability at 144 h (in vitro [3]): 100%
% inhibition (MRSA): 0.0%
% inhibition (Pseudomonas aeruginosa): 0.0%
% inhibition of migration [4]: 50%
% of LPS induction [5]: 102.4%
% inhibition of HBV replication in HEP G2 cells [6]: 47.8%
viability at 144 h, 10 micrograms per ml [7]: 95.3%
% inhibition of tube formation (HUVEC): 24%
Cell cycle analysis G0/G1 (A549 cells [8]): 59.2
Cell cycle analysis G2/M (A549 cells [8]): 9.6
Cell cycle analysis S (A549 cells [8]): 31.2
% of control phagocytosis (RAW 264.7 cells): 102.9%
% of SAC/IL2 induced control [9]: 123.6%
% prevention of ceramide induced apoptosis (A549 cells [10]): 0.0%
% inhibition (Streptococcus pneumoniae): 0.0%
% plaque reduction (HCMV strain AD169; HCMV in MRC-5 cells, peptide 10 micrograms per ml, 7-10 days): 3.2%
% of PHA induced control [11]: 97.5%
